Source: PMC3199867, “Targeting surface nucleolin with multivalent HB-19 and related Nucant pseudopeptides results in distinct inhibitory mechanisms depending on the malignant tumor cell type” (BMC Cancer, 2011)

Tests used:
IL-6 = IL-6 production by PBMC stimulated with heat-killed Staphylococcus aureus, ELISA; format: cell-based; conditions: Homo sapiens, PBMC + HKSA 10^8 particles/ml, 1 μg/ml, 20 hours post-stimulation, triplicate, read-out: degree of inhibition of IL-6 production
Protocol: (§1) Peripheral blood mononuclear cells (PBMC) from healthy donors were prepared by Ficoll-Hypaque density gradient centrifugation and suspended in RPMI 1640 medium containing 1% (v/v) of human serum AB (from Invitrogen). PBMC (10^6 cells/0.5 ml) in the absence or presence of 10 μM of each of HB-19, N3, N6, and N7, or 1 μg/ml of dexamethasone (Sigma) were stimulated with 10^8 particles/ml of Heat-killed Staphylococcus aureus (HKSA; InvivoGen, San Diego, USA). The cultures were incubated at 37°C in a 5% CO2 incubator, and the level of TNF-α and IL-6 was monitored in the culture supernatants by ELISA (R & D Systems) at 20 hours post-stimulation.
(§2) Figure 3 HB-19 and related Nucant pseudopeptides inhibit the production of TNF-α and IL-6 by peripheral blood lymphocytes. The production of pro-inflammatory cytokines in PBMC cultures stimulated with HKSA was carried out in triplicate in the absence (Control) or presence of 10 μM of each of HB-19, N3, N6, N7, N6L, or 1 μg/ml of dexamethasone (Dex.)(Methods). The level of TNF-α (section A) and IL-6 (section B) was monitored in culture supernatants by ELISA. The data presents the mean ± SD of triplicate samples. The degree of inhibition is indicated at the top of each histogram. Statistical significance: **p < 0.01, ***p < 0.001. […]

TNF-α = TNF-α production by PBMC stimulated with heat-killed Staphylococcus aureus, ELISA; format: cell-based; conditions: Homo sapiens, PBMC + HKSA 10^8 particles/ml, 1 μg/ml, 20 hours post-stimulation, triplicate, read-out: degree of inhibition of TNF-α production
Protocol: as §1, §2

melanoma TIII cell = test: Cell adhesion; format: cell-based, murine; conditions: after 5 hours of cell seeding, vs untreated control, mean of at least 2 independent experiments
TIII = test: Cell growth / proliferation (viable cell number); format: cell-based, murine; conditions: after 3 days of culture, vs untreated control, mean of at least 2 independent experiments
Protocol: (§3) Human breast (MDA-MB-231, MDA-MB-435 [37]), prostate (LNCaP, from American Type Culture Collection, ATCC, Rockville, MD), and cervical (HeLa) epithelial cancer cells were grown in DMEM-glutamax medium (Gibco Invitrogen, Cergy-Pontoise, France) containing GlutaMAX™, 4.5 g/l glucose and supplemented with 10% heat-inactivated (56°C for 30 min) fetal bovine serum (FBS; Hyclone, Thermo Fisher Scientific, Inc). Human SW480 cells are derived from a grade 3-4 colon carcinoma, while the highly metastatic counterpart SW620 is established from the lymph node of a person. Both SW480 and SW620 cells (obtained from Francis Raul, IRCAD) are highly tumorigenic in nude mice. They were cultured in D-MEM, 10% FCS. The murine melanoma TIII cell line was obtained from Armelle Prévost-Blondel. Murine T29 lymphoma cells, obtained from Philippe Kastner (CNRS, Strasbourg), have been established from Ik^L/L tumors from mice carrying a hypomorphic mutation (Ik^L/L) in the Ikaros gene encoding a transcription factor that regulates lymphocyte differentiation, and acts also as a tumor suppressor in T lymphocytes. The T29 cells were cultured in RPMI medium containing 25 mM Hepes pH 7.6, 1 mM sodium pyruvate, and 10% FCS. Human leukemia cell lines, Jurkat (acute T cell leukemia), HuT 78 (cutaneous T lymphocyte), RAJI (Burkitt lymphoma), and HL60 (promyelocytic leukemia) were cultured in RPMI-1640 medium (Gibco) containing GlutaMAX™, and supplemented with 10% heat-inactivated FBS as described before. The wild-type Chinese hamster ovary cell line (CHO K1) was purchased from American Type Culture Collection (ATCC; Rockville, MD). The CHO LRP1-null cell line (CHO-13-5-1) was kindly provided by D. Strickland [47]. They were cultured in Ham's F12K medium. All cells were cultured with 10% (v/v) heat inactivated (56°C, 30 min) fetal bovine serum (FBS) (Roche Molecular Biochemicals, Indianapolis, IN) and 50 international units/mL penicillin-streptomycin (Invitrogen). Cell death was monitored conveniently by uptake of the trypan blue dye due to plasma membrane permeability of dying and/or dead cells.

T29 [1] = test: Cell death (trypan blue uptake); format: cell-based, murine; conditions: T29 cells, 0-20 μM, read-out: Cell death: IC50 24 hours post-passage
Protocol: as §3

T29 [2] = test: Cell growth / multiplication (viable cell number); format: cell-based, murine; conditions: for multiplication index of cells at day 3 compared to day 0: T29 seeded at 150,000 cells/ml, 20 μM (pentavalent), triplicate, control 17.5-fold
Protocol: as §3
Figure 7 HB-19 and related multivalent Nucant pseudopeptides induce cell death associated with internucleosomal DNA fragmentation. A. Inhibition of cell multiplication by HB-19 and related multivalent Nucant pseudopeptides. […] Cell cultures (in triplicate) were monitored for viable cell number daily for 3 days. The histograms show the mean number of cells/ml ± SD of triplicate samples. The multiplication index of cells at day 3 compared to day 0 (the day of seeding) is given at the top of histogram. At 3 days post passage of T29 cells, the cell multiplication index of cells is 17.5-fold compared to 8.9-, 7.2-, 2.2-, and 1.7-fold in the presence of treatment with HB-19, N3, N6, and N7, respectively. B. N7 inhibits T29 cell multiplication in a dose dependent manner. T29 cells seeded at 100,000/ml in 2 ml in the absence (0 μM) or presence of N7 at various concentrations 2.5, 5, 10 and 20 μM were cultured for 3 days and the number of viable cells was determined at day 1, 2, and 3 post-seeding. The ordinate gives the cell number/ml (the mean of 2 samples) in each culture at day 1, 2, and 3 post-seeding. C. Partial cleavage of surface/cytoplasmic nucleolin. T29 cells were cultured for 45 min with 0 (for control; lanes C), 2 and 10 μM of N6 before preparation of cytoplasmic (that contains both surface and cytoplasmic nucleolin) and nuclear extract and analysis by immunoblotting using rabbit polyclonal antibodies that are directed against the first 26 (panel anti-Nt Ab) and the last 16 amino acids (panel anti-Ct Ab) of human nucleolin, respectively. The nuclear extracts were analyzed by immunoblotting using anti-Nt Ab (Methods). […]

[3] = test system: human breast tumor cell xenografts; conditions: nude mice; cited from earlier work
Description: (§4) The importance of cell-surface nucleolin in cancer biology was recently highlighted by studies showing that ligands of nucleolin play critical role in tumorigenesis and angiogenesis. Accordingly, we recently reported that both of these events are suppressed by targeting surface nucleolin with the HB-19 pseudopeptide, a potent antagonist that forms an irreversible complex with surface nucleolin [9, 37]. By binding to the RGG domain of nucleolin, HB-19 prevents binding of growth factors to cells, triggers calcium entry into cells, inhibits MAP kinase activation, and down-regu ...

spontaneous melanoma = conditions: RET mice, treatment for several months; cited from earlier work
Description: as §4

CHO K1 cells = test: Midkine (MK) internalization, confocal immunofluorescence; format: cell-based, Chinese hamster; conditions: CHO K1, pretreatment 5 μM 30 min at 20°C, then MK 0.2 μM 90 min at 37°C
Protocol: (§5) CHO K1 and CHO 13 cells (as in the Additional file 2, Figure 3S) were incubated with 0.2 µM Midkine (MK) for 90 min at 37°C or at 20°C before fixation with PFA. In sections C and E, cells were first incubated (30 min at 20°C) with 5 µM HB-19 before addition of MK (0.2 µM) and further incubation at 37°C for 90 min. […] Experimental conditions for confocal immunofluorescence microscopy were as described previously.

[4] = test system: CHO 13 cells (LRP-1 null); test: as above; format: cell-based, Chinese hamster; conditions: CHO 13 (LRP-1 null), pretreatment 5 μM 30 min at 20°C, then MK 0.2 μM 90 min at 37°C
Protocol: as §5

[5] = biological target: nucleolin (cell-surface expressed nucleolin), human (human (endogenous in HeLa, CEM, MDA-MB-231, HuT 78 and other human cell lines)) (UniProt P19338)
Sequence of nucleolin (cell-surface expressed nucleolin), human (human (endogenous in HeLa, CEM, MDA-MB-231, HuT 78 and other human cell lines)) (P19338 whole entry): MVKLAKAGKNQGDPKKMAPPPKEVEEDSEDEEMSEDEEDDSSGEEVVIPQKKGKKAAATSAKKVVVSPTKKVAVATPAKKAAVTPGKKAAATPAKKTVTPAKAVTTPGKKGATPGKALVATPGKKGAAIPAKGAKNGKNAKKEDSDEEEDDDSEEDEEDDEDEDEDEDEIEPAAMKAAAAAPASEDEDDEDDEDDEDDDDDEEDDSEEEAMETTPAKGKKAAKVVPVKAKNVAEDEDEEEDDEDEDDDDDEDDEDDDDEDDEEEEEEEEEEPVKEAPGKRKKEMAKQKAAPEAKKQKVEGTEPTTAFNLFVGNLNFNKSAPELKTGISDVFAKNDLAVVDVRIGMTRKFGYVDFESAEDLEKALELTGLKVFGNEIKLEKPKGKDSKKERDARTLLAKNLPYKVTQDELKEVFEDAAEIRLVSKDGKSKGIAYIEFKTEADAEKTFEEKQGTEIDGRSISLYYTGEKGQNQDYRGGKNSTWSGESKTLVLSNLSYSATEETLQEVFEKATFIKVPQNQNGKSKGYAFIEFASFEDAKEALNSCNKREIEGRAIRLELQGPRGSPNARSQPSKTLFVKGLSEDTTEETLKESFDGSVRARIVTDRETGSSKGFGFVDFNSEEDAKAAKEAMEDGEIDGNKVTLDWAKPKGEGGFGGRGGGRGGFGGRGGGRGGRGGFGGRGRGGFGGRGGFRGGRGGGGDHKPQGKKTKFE

## C[C@@H]1C[C@H]2[C@@H]3CCC4=CC(=O)C=C[C@]4(C)[C@@]3(F)[C@@H](O)C[C@]2(C)[C@@]1(O)C(=O)CO [Dex., dexamethasone]
IL-6
  inhibition at 1 µg/mL: 62%
TNF-α
  inhibition at 1 µg/mL: 61%

## Ac-Lys-Aib-Gly-Lys-Aib-Gly-Lys-Aib-Gly-Lys-Aib-Gly-Lys-Aib-Gly-CONH2 [Nucant N3, Presents pentavalently the pseudo-tripeptide Lysψ(CH2N)-Pro-Arg coupled to the polypeptide template containing Aib]
Melanoma TIII cell; 5 μM
  % Inhibition of cell Adhesion: No effect
Melanoma TIII cell; 10 μM
  % Inhibition of cell Adhesion: 15%
Melanoma TIII cell; 20 μM
  % Inhibition of cell Adhesion: 24%
TIII; 5 μM
  % Inhibition of cell Proliferation: No effect
TIII; 10 μM
  % Inhibition of cell Proliferation: 10%
TIII; 20 μM
  % Inhibition of cell Proliferation: 36%
T29 [1]
  IC50: > 20 µM
T29 [2]
  multiplication index of cells at day 3 compared to day 0: 7.2 fold

## H2NLys-Lys-Lys-Gly-Pro-Lys-Glu-Lys-AhxCONH2 [HB-19, Surface nucleolin antagonist pseudopeptide presenting pentavalently the pseudo-tripeptide Lysψ(CH2N)-Pro-Arg coupled to a peptide template]
[3]
  progression of established human breast tumor cell xenografts: markedly suppresses the progression
Spontaneous melanoma
  onset and frequency of spontaneous melanoma: delays significantly
  toxicity to normal tissue: no toxicity
T29 [1]
  IC50: > 20 µM
CHO K1 cells
  MK entry: prevents MK entry
[4]
  MK entry: not affected
T29 [2]; T29 cells, 0-20 μM, number of viable cells at 3 days post-treatment, read-out: Cell number: IC50 72 hours post-passage
  IC50: 20 µM
T29 [2]
  multiplication index of cells at day 3 compared to day 0: 8.9 fold

## Nucant 6 pseudopeptide
[5]
  inhibition of HIV-1 LAI entry into HeLa CD4+ (LTR-LacZ) cells, β-galactosidase activity at 48 h, 0.1-0.8 μM; activity against the pentavalent N3 and HB-19: > 2 fold

## Nucant 6L pseudopeptide
[5]
  inhibition of HIV-1 LAI entry into HeLa CD4+ (LTR-LacZ) cells, β-galactosidase activity at 48 h, 0.05-0.8 μM; activity against the pentavalent N3 and HB-19: > 4 fold

## Nucant 7 pseudopeptide
[5]
  inhibition of HIV-1 LAI entry into HeLa CD4+ (LTR-LacZ) cells, β-galactosidase activity at 48 h, 0.1-0.8 μM; activity against the pentavalent N3 and HB-19: > 2 fold
